Experimental data published in patent publication US9034856B2, “17-(1′propenyl)-17-3′-oxidoestra-4-en-3-one derivative, use thereof, and medicament containing said derivative” (Bayer Intellectual Property GmbH, priority 2007, dated 2015).
Like-named read-outs stand apart in the source and are kept apart here.

Assays:
[1] = target: T1, mineralocorticoid receptor (Homo sapiens (Human), UniProt P08235); experiment: Mineralocorticoid receptor binding test; conditions: reference 3H-aldosterone, Hi5 cytosol
T1 sequence (P08235 whole entry): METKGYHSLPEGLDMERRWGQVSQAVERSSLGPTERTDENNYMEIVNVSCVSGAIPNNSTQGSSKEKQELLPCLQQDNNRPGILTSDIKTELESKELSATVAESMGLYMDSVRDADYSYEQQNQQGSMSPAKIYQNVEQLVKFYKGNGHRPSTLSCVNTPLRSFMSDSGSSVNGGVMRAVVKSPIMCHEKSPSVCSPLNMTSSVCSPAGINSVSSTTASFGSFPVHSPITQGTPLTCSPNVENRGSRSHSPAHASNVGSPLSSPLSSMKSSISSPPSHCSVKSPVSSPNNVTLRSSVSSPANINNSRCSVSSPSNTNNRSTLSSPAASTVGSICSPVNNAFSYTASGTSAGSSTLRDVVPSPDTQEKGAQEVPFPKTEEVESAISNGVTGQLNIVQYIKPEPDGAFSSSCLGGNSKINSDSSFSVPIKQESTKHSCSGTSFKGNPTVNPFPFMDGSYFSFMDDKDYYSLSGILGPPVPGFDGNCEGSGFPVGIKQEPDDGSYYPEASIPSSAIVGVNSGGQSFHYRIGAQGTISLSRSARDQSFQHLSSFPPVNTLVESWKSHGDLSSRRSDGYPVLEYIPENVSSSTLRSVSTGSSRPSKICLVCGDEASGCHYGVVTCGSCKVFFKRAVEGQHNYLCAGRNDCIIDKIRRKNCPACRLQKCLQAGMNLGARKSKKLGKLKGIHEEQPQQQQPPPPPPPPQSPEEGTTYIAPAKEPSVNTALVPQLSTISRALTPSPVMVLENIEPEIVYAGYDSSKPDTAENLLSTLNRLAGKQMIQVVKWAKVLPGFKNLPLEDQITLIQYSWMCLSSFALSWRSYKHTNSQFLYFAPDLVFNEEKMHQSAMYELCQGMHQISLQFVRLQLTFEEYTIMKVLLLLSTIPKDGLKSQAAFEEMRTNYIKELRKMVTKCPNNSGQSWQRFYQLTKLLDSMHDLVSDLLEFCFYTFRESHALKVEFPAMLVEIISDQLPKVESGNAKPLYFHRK
From the text: 2. Mineralocorticoid Receptor Binding Test:

[2] = target: progesterone receptor (Homo sapiens (Human), UniProt P06401); experiment: Progesterone receptor binding test; conditions: for Progesterone receptor (PR) Competition factor: CF 1 = affinity of progesterone, CF > 1 lower affinity; for IC50: displacement of 3H-progesterone, cytosol from PR-expressing Hi5 insect cells; for CF PR/CF MR: ratio of competition factors CF(PR) and CF(MR)
progesterone receptor, sequence (P06401 whole entry, species assumed): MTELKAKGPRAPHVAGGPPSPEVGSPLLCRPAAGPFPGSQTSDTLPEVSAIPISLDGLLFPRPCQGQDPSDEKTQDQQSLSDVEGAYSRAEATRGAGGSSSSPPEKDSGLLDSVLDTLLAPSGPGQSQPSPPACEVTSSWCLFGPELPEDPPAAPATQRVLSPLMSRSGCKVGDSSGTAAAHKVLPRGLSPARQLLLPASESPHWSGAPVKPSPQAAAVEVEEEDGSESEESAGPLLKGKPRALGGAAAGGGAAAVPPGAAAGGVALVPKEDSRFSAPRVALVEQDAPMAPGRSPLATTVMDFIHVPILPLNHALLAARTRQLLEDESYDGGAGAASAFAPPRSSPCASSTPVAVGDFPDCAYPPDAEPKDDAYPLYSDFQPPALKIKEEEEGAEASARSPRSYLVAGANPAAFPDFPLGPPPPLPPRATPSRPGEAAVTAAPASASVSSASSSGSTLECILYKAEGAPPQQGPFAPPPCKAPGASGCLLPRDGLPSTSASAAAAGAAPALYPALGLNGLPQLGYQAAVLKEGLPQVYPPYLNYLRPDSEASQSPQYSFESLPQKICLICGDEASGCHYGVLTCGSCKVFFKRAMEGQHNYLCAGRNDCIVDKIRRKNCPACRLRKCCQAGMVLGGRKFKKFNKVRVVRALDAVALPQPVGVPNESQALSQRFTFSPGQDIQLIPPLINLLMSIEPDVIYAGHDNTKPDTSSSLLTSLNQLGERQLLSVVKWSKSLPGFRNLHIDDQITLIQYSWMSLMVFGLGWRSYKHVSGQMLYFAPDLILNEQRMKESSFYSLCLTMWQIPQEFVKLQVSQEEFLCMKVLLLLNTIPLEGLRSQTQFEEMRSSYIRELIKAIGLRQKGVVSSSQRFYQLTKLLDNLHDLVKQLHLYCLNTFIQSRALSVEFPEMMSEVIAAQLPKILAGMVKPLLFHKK
Method: 1. Progesterone Receptor Binding Test:
Using cytosol from progesterone receptor-expressing insect cells (Hi5), competitive binding to the progesterone receptor was determined from the ability to displace ^3H-progesterone as reference substance from the receptor.

[3] = target: T2, androgen receptor (Homo sapiens (Human), UniProt P10275); experiment: Androgenic/antiandrogenic action by transactivation test (PC3 reporter cells); format: cell-based; conditions: for IC50: 0.05 nM R1881, read-out: Androgen receptor Antagonism IC50; for EC50: read-out: Androgen receptor Agonism EC50
T2 sequence (P10275 whole entry, species assumed): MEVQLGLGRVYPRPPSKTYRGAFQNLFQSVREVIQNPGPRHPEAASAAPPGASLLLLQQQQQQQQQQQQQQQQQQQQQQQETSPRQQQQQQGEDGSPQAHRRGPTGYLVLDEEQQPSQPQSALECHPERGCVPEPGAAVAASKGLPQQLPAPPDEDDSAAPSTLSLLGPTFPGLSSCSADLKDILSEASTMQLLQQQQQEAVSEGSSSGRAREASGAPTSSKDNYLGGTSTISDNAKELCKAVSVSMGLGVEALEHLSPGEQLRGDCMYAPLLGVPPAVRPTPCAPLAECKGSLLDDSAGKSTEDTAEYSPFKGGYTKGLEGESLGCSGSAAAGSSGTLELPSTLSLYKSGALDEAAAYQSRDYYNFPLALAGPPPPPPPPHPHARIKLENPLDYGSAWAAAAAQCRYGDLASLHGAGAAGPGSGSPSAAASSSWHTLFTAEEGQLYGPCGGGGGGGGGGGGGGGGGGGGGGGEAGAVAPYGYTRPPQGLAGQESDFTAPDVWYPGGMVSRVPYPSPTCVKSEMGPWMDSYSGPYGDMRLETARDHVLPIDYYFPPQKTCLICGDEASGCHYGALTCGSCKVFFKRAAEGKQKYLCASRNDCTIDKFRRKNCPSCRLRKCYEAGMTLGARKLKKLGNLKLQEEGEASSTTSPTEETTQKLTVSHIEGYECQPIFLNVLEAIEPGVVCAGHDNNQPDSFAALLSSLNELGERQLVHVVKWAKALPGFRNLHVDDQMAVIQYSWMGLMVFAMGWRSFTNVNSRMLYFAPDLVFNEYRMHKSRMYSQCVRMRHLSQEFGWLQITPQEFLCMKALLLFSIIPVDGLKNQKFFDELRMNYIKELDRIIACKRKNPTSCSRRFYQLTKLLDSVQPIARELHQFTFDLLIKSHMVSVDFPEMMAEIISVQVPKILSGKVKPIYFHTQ
Method: 6. Determination of Androgenic/Antiandrogenic Action by Means of Transactivation Tests:
The androgenic/antiandrogenic action of the test substances was determined as for the transactivation tests described above.
The following modifications were made: In this case reporter cell lines were used (PC3 cells) that express the androgen receptor, and a reporter construct that contains luciferase under the control of a steroid hormone-responsive promoter.
For determination of the antiandrogenic efficacy, 0.05 nM R1881 was added to the cells, in order to achieve almost maximum stimulation of the reporter gene.

[4] = target: T1, mineralocorticoid receptor; experiment: Antimineralocorticoid action by transactivation test (MDCK reporter cells); format: cell-based; conditions: for IC50: read-out: Mineralocorticoid receptor Antagonism IC50; for Emax: read-out: Mineralocorticoid receptor Antagonism efficacy; for Mineralocorticoid receptor Antagonism (result in words): cell spans IC50 and efficacy
Method: 5. Determination of Antimineralocorticoid Action by Means of Transactivation Tests:
The antimineralocorticoid activity of the test substances was determined as for the transactivation tests described above.
The following modifications were undertaken: In this case reporter cell lines were used (MDCK cells) that express the human mineralocorticoid receptor, and transiently contain a reporter construct that contains luciferase under the control of a steroid hormone-responsive promoter.

[5] = target: fusion protein from the PR-ligand-binding domain and a Gal4-transactivation domain (Homo sapiens, UniProt P06401); experiment: Progestational action by transactivation test (CHO K1 reporter cells); format: cell-based; conditions: CHO K1 luciferase reporter, 16 hours incubation; for EC50: read-out: Progesterone receptor Agonism EC50; for Emax: read-out: Progesterone receptor Agonism efficacy
fusion protein from the PR-ligand-binding domain and a Gal4-transactivation domain, sequence (P06401 679-913): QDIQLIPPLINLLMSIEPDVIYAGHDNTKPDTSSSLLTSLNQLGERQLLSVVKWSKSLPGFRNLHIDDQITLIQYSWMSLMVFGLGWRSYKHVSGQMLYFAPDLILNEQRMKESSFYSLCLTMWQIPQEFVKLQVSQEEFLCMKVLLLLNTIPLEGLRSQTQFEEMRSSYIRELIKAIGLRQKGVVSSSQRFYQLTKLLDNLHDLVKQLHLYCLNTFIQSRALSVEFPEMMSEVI
Method: 4. Determination of Progestational Action by Means of Transactivation Tests:
The test compounds were added eight hours later, and the cells were incubated with the compounds for 16 hours. The tests were carried out in triplicate. At the end of incubation the medium containing the effector was removed and replaced with lysis buffer. After luciferase assay substrate (Promega, #E1501) had been added, the 96-well plates were then put in a microplate luminometer (Pherastar, BMG Labtech), and the luminescence was measured. The IC50 values were evaluated using software for calculating dose-effect relations.

[6] = target: T2, androgen receptor; experiment: Androgen receptor binding test; conditions: reference 3H-testosterone, Hi5 cytosol; for IC50: read-out: Androgen receptor IC50
Method: Androgen Receptor Binding Test:
The test was carried out as in 1., with the following modifications: cytosol from androgen receptor-expressing insect cells (Hi5) was used, and the reference substance was ^3H-testosterone.

[7] = 0.05 nM R1881, read-out: Androgen receptor Antagonism efficacy
[8] = read-out: Androgen receptor Agonism efficacy
[9] = MDCK reporter cells, 1 nM aldosterone

C[C@]12CC[C@H]3[C@@H](CCC4=CC(=O)CC[C@@H]43)[C@@H]1CC[C@@]21C=CCO1 (stereo in doubt) [Example 1, 17α-(1′-Propenyl)-17β-3′-oxidoestra-4-en-3-one]
Mineralocorticoid receptor (MR) Competition factor [1]: 2.6 | Progesterone receptor (PR) Competition factor [2]: 0.46 | IC50 [2]: 3 nM | Emax [3, 7]: 29% | Emax [3, 8]: 62.7% | IC50 [4, 9]: 31 nM | Emax [4, 9]: 83%

C[C@]12CC[C@H]3[C@@H](C=CC4=CC(=O)CC[C@@H]43)[C@@H]1CC[C@@]21C=CCO1 (stereo in doubt) [Example 2, 17α-(1′-Propenyl)-17β-3′-oxidoestra-4,6-dien-3-one]
Mineralocorticoid receptor (MR) Competition factor [1]: 8.9 | Progesterone receptor (PR) Competition factor [2]: 2.29 | IC50 [2]: 55.5 nM | Emax [3, 7]: 34.4% | Emax [3, 8]: 31.9% | EC50 [5]: 2.9 nM | Emax [5]: 36.4% | IC50 [4, 9]: 92 nM | Emax [4, 9]: 136%

C[C@]12CC[C@H]3[C@@H](CCC4=CC(=O)CC[C@@H]43)[C@@H]1CC1(CC1)[C@@]21C=CCO1 (stereo in doubt) [Example 6, 16,16-Ethylene-17α-(1′-propenyl)-17β-3′-oxidoestra-4-en-3-one]
Mineralocorticoid receptor (MR) Competition factor [1]: 22.9 | Progesterone receptor (PR) Competition factor [2]: 3.41 | IC50 [2]: 110 nM | Emax [3, 7]: 70.1% | Emax [3, 8]: 49.7% | IC50 [4, 9]: 1000 nM | Emax [4, 9]: 65.1%

CC[C@]12CC[C@H]3[C@@H](CCC4=CC(=O)CC[C@@H]43)[C@@H]1CC[C@@]21C=CCO1 (stereo in doubt) [Example 7, 18-Methyl-17α-(1′-propenyl)-17β-3′-oxidoestra-4-en-3-one]
Mineralocorticoid receptor (MR) Competition factor [1]: 1.6 | Androgen receptor Competition factor [6]: 0.5 | Progesterone receptor (PR) Competition factor [2]: 0.19 | IC50 [2]: 5.3 nM | CF PR/CF MR [2]: 0.12 | IC50 [3]: 160 nM | Emax [3, 7]: 25.4% | EC50 [3]: 3.7 nM | Emax [3, 8]: 78.3% | IC50 [4, 9]: 5 nM | Emax [4, 9]: 87.8%

CC[C@]12CC[C@H]3[C@@H](C=CC4=CC(=O)CC[C@@H]43)[C@@H]1CC[C@@]21C=CCO1 (stereo in doubt) [Example 8, 18-Methyl-17α-(1′-propenyl)-17β-3′-oxidoestra-4,6-dien-3-one]
Mineralocorticoid receptor (MR) Competition factor [1]: 1.2 | Progesterone receptor (PR) Competition factor [2]: 1.78 | Emax [3, 7]: 5% | Emax [3, 8]: 62% | EC50 [5]: 1.1 nM | Emax [5]: 12.3% | IC50 [4, 9]: 66 nM | Emax [4, 9]: 112%

C[C@]12CCC(=O)C=C1[C@@H]1C[C@@H]1[C@H]1[C@@H]3[C@@H]4C[C@@H]4[C@@]4(CCC(=O)O4)[C@@]3(C)CC[C@@H]12 [A, 6β,7β-15β,16β-dimethylene-3-oxo-17-pregn-4-ene-21,17β-carbolactone, reference compound]
Mineralocorticoid receptor (MR) Competition factor [1]: 0.5 | Progesterone receptor (PR) Competition factor [2]: 2.7 | Emax [5]: 72.2% | Emax ([4]; MDCK): 64.1%

C[C@@H]1CC2=CC(=O)CC[C@@H]2[C@H]2CC[C@@]3(C)[C@@H](CC[C@@]34C=CCO4)[C@@H]21 [Example 3, 7α-Methyl-17α-(1′-propenyl)-17β-3′-oxidoestra-4-en-3-one]
Mineralocorticoid receptor (MR) Competition factor [1]: 3.2 | Progesterone receptor (PR) Competition factor [2]: 2.41 | IC50 [2]: 62 nM | Emax [3, 7]: 5% | Emax [3, 8]: 80.2% | EC50 [5]: 3.7 nM | Emax [5]: 61.6% | IC50 [4, 9]: 17 nM | Emax [4, 9]: 112%

CC[C@@H]1CC2=CC(=O)CC[C@@H]2[C@H]2CC[C@@]3(C)[C@@H](CC[C@@]34C=CCO4)[C@H]12 [Example 4, 7α-Ethyl-17α-(1′-propenyl)-17β-3′-oxidoestra-4-en-3-one]
Mineralocorticoid receptor (MR) Competition factor [1]: 4.1 | IC50 [6]: 64 nM | Androgen receptor Competition factor [6]: 2.9 | Progesterone receptor (PR) Competition factor [2]: 11.75 | IC50 [2]: 130 nM | CF PR/CF MR [2]: 2.87 | IC50 [3]: 1000 nM | Emax [3, 7]: 5% | EC50 [3]: 7.3 nM | Emax [3, 8]: 62.3% | EC50 [5]: 67 nM | Emax [5]: 65.1% | IC50 [4, 9]: 310 nM | Emax [4, 9]: 82.2%

C=C[C@@H]1CC2=CC(=O)CC[C@@H]2[C@H]2CC[C@@]3(C)[C@@H](CC[C@@]34C=CCO4)[C@@H]21 [Example 5, 17α-(1′-Propenyl)-7α-vinyl-17β-3′-oxidoestra-4-en-3-one]
Mineralocorticoid receptor (MR) Competition factor [1]: 2.6 | IC50 [6]: 53 nM | Androgen receptor Competition factor [6]: 2.2 | Progesterone receptor (PR) Competition factor [2]: 2.46 | CF PR/CF MR [2]: 0.95 | IC50 [3]: 1000 nM | Emax [3, 7]: 5% | EC50 [3]: 3.7 nM | Emax [3, 8]: 86.8% | EC50 [5]: 1.2 nM | Emax [5]: 21.9% | IC50 [4, 9]: 57 nM | Emax [4, 9]: 121%

CC[C@]12CC[C@H]3[C@@H]([C@H](C)CC4=CC(=O)CC[C@@H]43)[C@@H]1CC[C@@]21C=CCO1 [Example 9, 7α,18-Dimethyl-17α-(1′-propenyl)-17β-3′-oxidoestra-4-en-3-one]
Mineralocorticoid receptor (MR) Competition factor [1]: 1.6 | IC50 [6]: 81 nM | Androgen receptor Competition factor [6]: 3.0 | Progesterone receptor (PR) Competition factor [2]: 3.26 | IC50 [2]: 77 nM | CF PR/CF MR [2]: 2.04 | IC50 [3]: 1000 nM | Emax [3, 7]: 5% | EC50 [3]: 3 nM | Emax [3, 8]: 77.9% | EC50 [5]: 7.1 nM | Emax [5]: 55.9% | IC50 [4, 9]: 38 nM | Emax [4, 9]: 105%

CC[C@@H]1CC2=CC(=O)CC[C@@H]2[C@H]2CC[C@@]3(CC)[C@@H](CC[C@@]34C=CCO4)[C@H]12 [Example 10, 7α-Ethyl-18-methyl-17α-(1′-propenyl)-17β-3′-oxidoestra-4-en-3-one]
Mineralocorticoid receptor (MR) Competition factor [1]: 1.1 | IC50 [6]: 110 nM | Androgen receptor Competition factor [6]: 4.1 | Progesterone receptor (PR) Competition factor [2]: 7.03 | IC50 [2]: 170 nM | CF PR/CF MR [2]: 6.39 | IC50 [3]: 1000 nM | Emax [3, 7]: 5% | EC50 [3]: 9.4 nM | Emax [3, 8]: 70.4% | EC50 [5]: 780 nM | Emax [5]: 26.4% | IC50 [4, 9]: 850 nM | Emax [4, 9]: 39.2%

C=C[C@@H]1CC2=CC(=O)CC[C@@H]2[C@H]2CC[C@@]3(CC)[C@@H](CC[C@@]34C=CCO4)[C@@H]21 [Example 11, 7α-Vinyl-18-methyl-17α-(1′-propenyl)-17β-3′-oxidoestra-4-en-3-one]
Mineralocorticoid receptor (MR) Competition factor [1]: 1.3 | IC50 [6]: 1300 nM | Androgen receptor Competition factor [6]: 4.7 | Progesterone receptor (PR) Competition factor [2]: 6.24 | IC50 [2]: 170 nM | CF PR/CF MR [2]: 4.80 | IC50 [3]: 1000 nM | Emax [3, 7]: 5% | EC50 [3]: 5.3 nM | Emax [3, 8]: 88.8% | EC50 [5]: 100 nM | Emax [5]: 29.5% | Mineralocorticoid receptor Antagonism (result in words) [4, 9]: Partial agonist

CC[C@]12CC[C@H]3[C@@H]([C@H](C4CC4)CC4=CC(=O)CC[C@@H]43)[C@@H]1CC[C@@]21C=CCO1 [Example 12, 7α-Cyclopropyl-18-methyl-17α-(1′-propenyl)-17β-3′-oxidoestra-4-en-3-one]
Mineralocorticoid receptor (MR) Competition factor [1]: 2.0 | Progesterone receptor (PR) Competition factor [2]: 8.51 | IC50 [2]: 210 nM | Emax [3, 7]: 5% | Emax [3, 8]: 70.1% | EC50 [5]: 55 nM | Emax [5]: 30.9% | Mineralocorticoid receptor Antagonism (result in words) [4, 9]: Partial agonist

CC[C@]12CC[C@H]3[C@@H](C[C@@H](CO)C4=CC(=O)CC[C@@H]43)[C@@H]1CC[C@@]21C=CCO1 [Example 13, 6β-Hydroxymethylene-18-methyl-17α-(1′-propenyl)-17β-3′-oxidoestra-4-en-3-one]
Mineralocorticoid receptor (MR) Competition factor [1]: 2.2 | IC50 [6]: 1000 nM | Androgen receptor Competition factor [6]: 1000.0 | Progesterone receptor (PR) Competition factor [2]: 88.59 | IC50 [2]: 2100 nM | CF PR/CF MR [2]: 40.27 | IC50 [3]: 140 nM | Emax [3, 7]: 48.1% | EC50 [3]: 1000 nM | Emax [3, 8]: 5% | EC50 [5]: 1000 nM | Emax [5]: 5% | IC50 [4, 9]: 110 nM | Emax [4, 9]: 98.8%
